In data set [1] the test system is A-549 (human lung carcinoma). Particulars: A-549 cell line.
The subject of data set [2] is FDIGROV (human ovarian carcinoma). As to conditions: FDIGROV cell line.
Data set [3] has as its system A4982LM (human kidney carcinoma). Particulars: A4982LM cell line.
The test system of data set [4] is HT-29 (human colon adenocarcinoma). Particulars: HT-29 cell line.
The subject of data set [5] is MDA231 (human breast carcinoma). Particulars: MDA231 cell line.
Data set [6] has as its system UMUC3 (human bladder carcinoma). Particulars: UMUC3 cell line.
Data set [7] deals with PC-3 (human prostate adenocarcinoma). As to conditions: PC-3 cell line.
In data set [8] the test system is PACA2 (human pancreatic adenocarcinoma). As to conditions: PACA2 cell line.

A value given as a limit tells only on which side of the number the result lay.

As for `Cc1c(C)[n+](Cc2ccccc2)cn1Cc1ccccc1.[Cl-]` [Compound 1, 1,3-bis(phenylmethyl)-4,5-dimethyl-1H-imidazlium chloride], in data set [1], the “Cytotoxic activity ED50, A-549” value is above 10 mg/L and the “Cytotoxic activity in words, A-549” value is “inactive”. In data set [2], the “Cytotoxic activity ED50, FDIGROV” value came to 7.39 mg/L and the “ED50, FDIGROV” value was 7390 mg/L. For the same compound, in data set [3], the “Cytotoxic activity ED50, A4982LM” value is above 10 mg/L and the “Cytotoxic activity in words, A4982LM” value is “inactive”. Besides, in data set [4], the “Cytotoxic activity ED50, HT-29” value is above 10 mg/L and the “Cytotoxic activity in words, HT-29” value is “inactive”. Moreover, the “Cytotoxic activity ED50, MDA231” value in data set [5] was above 10 mg/L. In data set [6], the “Cytotoxic activity ED50, UMUC3” value is above 10 mg/L. In data set [7], the “Cytotoxic activity ED50, PC-3” value is above 10 mg/L and the “Cytotoxic activity in words, PC-3” value was “inactive”. In addition, in data set [8], the “Cytotoxic activity ED50, PACA2” value is above 10 mg/L.

In the case of `Cc1c(C)[n+](Cc2ccccc2)c(C)n1Cc1ccccc1.[Cl-]` [Compound 2, 1,3-bis(phenylmethyl)-2,4,5-trimethyl-1H-imidazlium chloride], in data set [1], the “Cytotoxic activity ED50, A-549” value was above 10 mg/L and the “Cytotoxic activity in words, A-549” value is “inactive”. In data set [2], the “Cytotoxic activity ED50, FDIGROV” value amounted to 5.26 mg/L and the “ED50, FDIGROV” value amounted to 5260 mg/L. For the same compound, in data set [3], the “Cytotoxic activity ED50, A4982LM” value was above 10 mg/L and the “Cytotoxic activity in words, A4982LM” value was “inactive”. Moreover, in data set [4], the “Cytotoxic activity ED50, HT-29” value is above 10 mg/L and the “Cytotoxic activity in words, HT-29” value was “inactive”. Moreover, the “Cytotoxic activity ED50, MDA231” value in data set [5] came out at 1.66 mg/L. The “Cytotoxic activity ED50, UMUC3” value in data set [6] turned out to be 6.47 mg/L. Moreover, in data set [7], the “Cytotoxic activity ED50, PC-3” value was above 10 mg/L and the “Cytotoxic activity in words, PC-3” value was “inactive”. In addition, in data set [8], the “Cytotoxic activity ED50, PACA2” value turned out to be 1.38 mg/L.

These data come from patent US6878731B2, “Imidazole alkaloids from Lepidium meyenii and methods of usage” (Pure World Botanicals, Inc., priority 2002, dated 2005).
